Test results from US12012410B2, “Substituted pyrazolo[1,5-a]pyrazines for spinal muscular atrophy” (REBORNA BIOSCIENCES, INC., priority 2018, dated 2024).
Counter-ions that a name gives are not always drawn.

Each compound was assayed on FL-SMN mRNA (SMN transcript containing exons 7 and 8) (assay: Live-cell assay to measure changes in FL-SMN mRNA levels (qPCR) after exposure to the compounds). Details: fibroblasts derived from patients SMA (GM03813); 24 hours incubation.
Type: cell-based, human
Description: In this example, each test compound was administered to cultured cells, and changes in the expression levels of mRNA transcripts of SMN, i.e., FL-SMN containing exons 7 and 8 and Delta7 with exon 7 skipped, were examined using PCR.
Fibroblasts derived from patients SMA (GM03813) (Coriell Cell Repositories) were cultured with passages using DMEM (High Glucose) (Life Technologies) supplemented with 10% FBS (Life Technologies). Cells were seeded in tissue-culture-treated 96-well plates (Corning) at 1.5 or 0.5×10^4 cells/well in 100 μL of medium. The cells were incubated in 5% CO2 for 6 hours, and the medium was replaced with 100 μL of medium (with DMSO, 0.1% final concentration) containing each of the compounds given in the Examples. After additional incubation for 24 hours under the same conditions, the cells were washed once with D-PBS(—) (Wako) and 25 μL/well of the lysis solution (with gDNA Remove) contained in the SuperPrep (registered trademark) Cell Lysis & RT Kit for qPCR (Toyobo life science) was added according to the manufacturer's instructions so that the cells were lysed and the genomic DNA was degraded. Furthermore, 5 μL of the STOP solution (with RNase Inhibitor) contained in the kit was added to provide RNA-containing solutions. Six microliters of the RNA-containing solutions were each mixed with 14 μL of a reverse transcription solution containing transcriptase together with dNTP, random primers and an oligodT primer. Reverse transcription was performed at 37° C. (15 min), 50° C. (5 min), and 98° C. (5 min), to give total cDNAs. The total cDNAs were diluted 30-fold with Ultra-pure water (Invitrogen) to measure the expression levels of FL-SMN, delta7, and GAPDH. For quantitative PCR (qPCR), a PCR solution was prepared according to the instructions of the manufacturer of the THUNDERBIRD (registered trademark) Probe qPCR Mix (Toyobo life science). Five microliters of the diluted total cDNA solutions and oligo DNA standard solutions, each containing either 001-Standard FL-SMN (SEQ ID NO. 1) or 002-Standard delta7 (SEQ ID NO. 2), were each mixed with 10 μL of each of the PCR solutions containing a qPCR probe, primers, and PCR enzyme. […] The oligoDNA standard solutions were prepared as those containing either of 5×10^8, 5×10^7, 5×10^6, 5×10^5, 5×10^4, 5×10^3, 5×10^2, 5×10, 5, or 0 copies. For the oligo DNA standards, primers, and probes, oligonucleotides synthesized by Integrated DNA Technologies, Inc. (IDT) were used. […] FIGS. 3B and 3D show their detection mechanisms. The final concentrations of the primers and probes added were 0.4 μM and 0.15 μM, respectively. The qPCR was performed using the following conditions on a ViiA7 instrument (Applied Biosystems): first stage: 95° C. (1 min)→second stage: 95° C. (15 sec)→third stage: 60° C. (1 min)→40 repeated cycles of the second and third stages. The GAPDH mRNA was used as the internal control, and the commercially available 20×gene expression PCR assay (Life Technologies, 4326317E, Hs99999905_ml) and Standard GAPDH (SEQ ID NO. 7) (see FIG. 1) was used to determine the number of copies of this gene. The measurement values obtained for the samples to be measured were standardized against the respective value obtained for GAPDH.
Using the above-mentioned assays, the activities of the compounds of the Examples were evaluated. Specifically, the percentages of the FL-SMN and delta7 values obtained using DMSO without the compounds and standardized against GAPDH were set as 100% and those of the FL-SMN and delta7 values obtained at the time of administration of the compounds and standardized against GAPDH were calculated. […]

| SMILES | Percentage of increase (FL-SMN mRNA standardized against GAPDH, DMSO control set as 100%) |
| --- | --- |
| Cc1cn2nc(-c3nc4cc(F)c(C5CCN(C)CC5)cc4c(=O)[nH]3)cc2c(C)n1 [Example 1, 2-(4,6-Dimethylpyrazolo[1,5-a]pyrazin-2-yl)-7-fluoro-6-(1-methylpiperidin-4-yl)quinazolin-4(3H)-one] | **** (equal to or higher than 180%) |
| Cc1cn2nc(-c3nc4ccc(C5CCN(C)CC5)cc4c(=O)[nH]3)cc2c(C)n1 [Example 2, 2-(4,6-Dimethylpyrazolo[1,5-a]pyrazin-2-yl)-6-(1-methylpiperidin-4-yl)quinazolin-4(3H)-one] | **** (equal to or higher than 180%) |
| Cc1cn2nc(-c3nc4c(F)cc(C5CCN(C)CC5)cc4c(=O)[nH]3)cc2c(C)n1 [Example 3, 2-(4,6-Dimethylpyrazolo[1,5-α]pyrazin-2-yl)-8-fluoro-6-(1-methylpiperidin-4-yl)quinazolin-4(3H)-one] | **** (equal to or higher than 180%) |
| Cc1cn2nc(-c3nc4ccc(C5CCN(C)CC5)c(F)c4c(=O)[nH]3)cc2c(C)n1 [Example 4, 2-(4,6-Dimethylpyrazolo[1,5-α]pyrazin-2-yl)-5-fluoro-6-(1-methylpiperidin-4-yl)quinazolin-4(3H)-one] | **** (equal to or higher than 180%) |
| CCc1nc(C)cn2nc(-c3nc4ccc(N5CCN(C)CC5)cc4c(=O)[nH]3)cc12 [Example 5, 2-(4-Ethyl-6-methylpyrazolo[1,5-α]pyrazin-2-yl)-6-(4-methylpiperazin-1-yl)quinazolin-4(3H)-one] | *** (equal to or higher than 150% but lower than 180%) |
| Cc1cn2nc(-c3nc4ccc(N5CCN(C)CC5)cc4c(=O)[nH]3)cc2c(C)n1 [Example 6, 2-(4,6-Dimethylpyrazolo[1,5-α]pyrazin-2-yl)-6-(4-methylpiperazin-1-yl)quinazolin-4(3H)-one dihydrochloride] | **** (equal to or higher than 180%) |
| Cc1cn2nc(-c3nc4cc(F)c(N5CCN(C)CC5)cc4c(=O)[nH]3)cc2c(C)n1 [Example 7, 2-(4,6-Dimethylpyrazolo[1,5-α]pyrazin-2-yl)-7-fluoro-6-(4-methylpiperazin-1-yl)quinazolin-4(3H)-one] | *** (equal to or higher than 150% but lower than 180%) |
| Cc1cn2cc(-c3ccc4nc(C5CCN(C)CC5)[nH]c(=O)c4c3)ccc2n1 [Example 9, 6-(2-Methylimidazo[1,2-α]pyridin-6-yl)-2-(1-methylpiperidin-4-yl)quinazolin-4(3H)-one] | **** (equal to or higher than 180%) |
| Cc1cn2cc(-c3ccc4nc(C5CCN(C)CC5)[nH]c(=O)c4c3)cc(F)c2n1 [Example 10, 6-(8-Fluoro-2-methylimidazo[1,2-α]pyridin-6-yl)-2-(1-methylpiperidin-4-yl)quinazolin-4(3H)-one] | **** (equal to or higher than 180%) |
| Cc1cc2oc(-c3nc4ccc(N5CCN(C)CC5)cc4c(=O)[nH]3)cc2c(C)n1 [Example 11, 2-(4,6-Dimethylfuro[3,2-c]pyridin-2-yl)-6-(4-methylpiperazin-1-yl)quinazolin-4(3H)-one] | *** (equal to or higher than 150% but lower than 180%) |
| CCN1CCN(c2ccc3nc(-c4cc5c(C)nc(C)cn5n4)[nH]c(=O)c3c2)CC1 [Example 12, 2-(4,6-Dimethylpyrazolo[1,5-a]pyrazin-2-yl)-6-(4-ethylpiperazin-1-yl)quinazolin-4(3H)-one] | **** (equal to or higher than 180%) |
| Cc1nc2ccc(-c3ccc4nc(C5CCN(C)CC5)[nH]c(=O)c4c3)cc2o1 [Example 13, 6-(2-Methyl-1,3-benzoxazol-6-yl)-2-(1-methylpiperidin-4-yl)quinazolin-4(3H)-one] | **** (equal to or higher than 180%) |
| Cc1nc2ccc(-c3ccc4nc(C5CCN(C)CC5)[nH]c(=O)c4c3)cc2s1 [Example 14, 6-(2-Methyl-1,3-benzothiazol-6-yl)-2-(1-methylpiperidin-4-yl)quinazolin-4(3H)-one] | *** (equal to or higher than 150% but lower than 180%) |
| Cc1cn2cc(-c3ccc4nc(C5CCN(C)CC5)[nH]c(=O)c4c3)cc2cn1 [Example 15, 2-(1-Methylpiperidin-4-yl)-6-(3-methylpyrrolo[1,2-α]pyrazin-7-yl)quinazolin-4(3H)-one] | **** (equal to or higher than 180%) |
| Cc1cn2nc(-c3nc4ccc(N5CCNCC5)cc4c(=O)[nH]3)cc2c(C)n1 [Example 16, 2-(4,6-Dimethylpyrazolo[1,5-α]pyrazin-2-yl)-6-(piperazin-1-yl)quinazolin-4(3H)-one dihydrochloride] | **** (equal to or higher than 180%) |
| Cc1cn2cc(-c3ccc4nc(C5CCN(C)CC5)[nH]c(=O)c4c3)cc(Cl)c2n1 [Example 17, 6-(8-Chloro-2-methylimidazo[1,2-α]pyridin-6-yl)-2-(1-methylpiperidin-4-yl)quinazolin-4(3H)-one] | *** (equal to or higher than 150% but lower than 180%) |
| Cc1nc2c(F)cc(-c3ccc4nc(C5CCN(C)CC5)[nH]c(=O)c4c3)cc2o1 [Example 18, 6-(4-Fluoro-2-methyl-1,3-benzoxazol-6-yl)-2-(1-methylpiperidin-4-yl)quinazolin-4(3H)-one] | **** (equal to or higher than 180%) |
| Cc1cn2cc(-c3cc(C)c4nc(C5CCN(C)CC5)[nH]c(=O)c4c3)ccc2n1 [Example 19, 8-Methyl-6-(2-methylimidazo[1,2-α]pyridin-6-yl)-2-(1-methylpiperidin-4-yl)quinazolin-4(3H)-one] | **** (equal to or higher than 180%) |
| Cc1cn2cc(-c3ccc4nc(C5CCN(C)CC5)[nH]c(=O)c4c3)cc2c(C)n1 [Example 20, 6-(1,3-Dimethylpyrrolo[1,2-α]pyrazin-7-yl)-2-(1-methylpiperidin-4-yl)quinazolin-4(3H)-one] | **** (equal to or higher than 180%) |
| Cc1cn2nc(-c3nc4c(C)cc(N5CCN(C)CC5)cc4c(=O)[nH]3)cc2c(C)n1 [Example 21, 2-(4,6-Dimethylpyrazolo[1,5-α]pyrazin-2-yl)-8-methyl-6-(4-methylpiperazin-1-yl)quinazolin-4(3H)-one] | **** (equal to or higher than 180%) |
| COc1cc(-c2ccc3nc(C4CCN(C)CC4)[nH]c(=O)c3c2)cn2cc(C)nc12 [Example 22, 6-(8-methoxy-2-methylimidazo[1,2-a]pyridine-6-yl)-2-(1-methylpiperidine-4-yl) kinazoline-4 (3H)-one] | **** (equal to or higher than 180%) |
| Cc1cn2cc(-c3ccc4nc(C5CCN(C)CC5)[nH]c(=O)c4c3)cc(C)c2n1 [Example 23, 6-(2,8-dimethylimidazo[1,2-a]pyridine-6-yl)-2-(1-methylpiperidin-4-yl) kinazoline-4 (3H)—one] | *** (equal to or higher than 150% but lower than 180%) |
| Cc1nc2c(F)cc(-c3cc(F)c4nc(C5CCN(C)CC5)[nH]c(=O)c4c3)cc2o1 [Example 24, 8-Fluoro-6-(4-fluoro-2-methyl-1,3-benzoxazole 6-yl)-2-(1-methylpiperidin-4-yl) quinazoline 4-(3H)-one] | **** (equal to or higher than 180%) |
